Consider 27 compounds from ChEMBL document CHEMBL5338818, “Discovery of the First Potent, Selective, and In Vivo Efficacious Polo-like Kinase 4 Proteolysis Targeting Chimera Degrader for the Treatment of TRIM37-Amplified Breast Cancer” (J Med Chem, 2023).

Test [1] deals with T1, Serine/threonine-protein kinase PLK4 (Homo sapiens, UniProt O00444).
T1 sequence (O00444 whole entry): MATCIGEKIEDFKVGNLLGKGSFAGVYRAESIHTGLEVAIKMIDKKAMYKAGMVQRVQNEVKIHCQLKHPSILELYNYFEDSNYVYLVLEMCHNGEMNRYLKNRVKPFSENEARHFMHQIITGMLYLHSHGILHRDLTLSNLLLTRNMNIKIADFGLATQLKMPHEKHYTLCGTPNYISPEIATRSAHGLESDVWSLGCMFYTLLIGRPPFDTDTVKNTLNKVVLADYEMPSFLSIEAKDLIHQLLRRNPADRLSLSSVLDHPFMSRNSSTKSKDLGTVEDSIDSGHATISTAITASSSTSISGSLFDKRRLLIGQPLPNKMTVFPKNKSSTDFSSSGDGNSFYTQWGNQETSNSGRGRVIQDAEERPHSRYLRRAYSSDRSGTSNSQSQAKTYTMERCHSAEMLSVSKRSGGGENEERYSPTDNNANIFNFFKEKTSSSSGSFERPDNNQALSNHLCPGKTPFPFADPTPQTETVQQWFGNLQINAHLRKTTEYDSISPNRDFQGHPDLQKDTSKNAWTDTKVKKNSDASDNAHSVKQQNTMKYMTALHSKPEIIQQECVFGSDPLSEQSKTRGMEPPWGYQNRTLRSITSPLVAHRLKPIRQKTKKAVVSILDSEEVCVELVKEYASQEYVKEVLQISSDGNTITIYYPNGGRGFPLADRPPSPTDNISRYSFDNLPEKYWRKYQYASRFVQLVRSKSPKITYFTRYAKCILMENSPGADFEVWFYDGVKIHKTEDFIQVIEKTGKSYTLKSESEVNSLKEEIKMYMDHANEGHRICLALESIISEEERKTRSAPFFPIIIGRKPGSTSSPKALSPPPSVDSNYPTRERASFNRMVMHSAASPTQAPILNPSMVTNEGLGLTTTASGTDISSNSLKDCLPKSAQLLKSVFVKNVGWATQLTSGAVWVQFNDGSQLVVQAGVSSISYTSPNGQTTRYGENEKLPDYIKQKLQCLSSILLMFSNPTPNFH
Briefly: Inhibition of PLK4 (unknown origin) incubated for 1 hr in presence of kinase tracer 236 by FRET assay.

Test [2] deals with T2, Protein cereblon/Serine/threonine-protein kinase PLK4 (Homo sapiens, UniProt O00444+Q96SW2). Briefly: Protac activity at CRBN/PLK4 in human MCF7 cells at 0.1 uM incubated for 48 hrs by Western blot analysis. The test is classed as cell-based. (A western blot detects proteins with antibodies after separation by electrophoresis.)
T2 sequence (Q96SW2 whole entry, looked up, one chain of several): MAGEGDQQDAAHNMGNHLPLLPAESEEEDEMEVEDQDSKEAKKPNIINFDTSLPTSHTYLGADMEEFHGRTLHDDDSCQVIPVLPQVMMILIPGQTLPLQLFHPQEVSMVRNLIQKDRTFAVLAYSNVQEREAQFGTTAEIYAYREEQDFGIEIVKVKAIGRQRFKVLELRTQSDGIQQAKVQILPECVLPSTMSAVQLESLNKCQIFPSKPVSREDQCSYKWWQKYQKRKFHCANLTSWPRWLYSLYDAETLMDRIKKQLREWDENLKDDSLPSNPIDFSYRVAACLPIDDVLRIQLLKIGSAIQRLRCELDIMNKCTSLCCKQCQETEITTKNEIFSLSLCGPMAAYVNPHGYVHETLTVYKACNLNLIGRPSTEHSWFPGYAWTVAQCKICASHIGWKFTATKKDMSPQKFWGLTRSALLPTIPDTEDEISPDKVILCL
The target in test [3] is T2, Protein cereblon/Serine/threonine-protein kinase PLK4. Briefly: Protac activity at CRBN/PLK4 in human MCF7 cells at 1 uM incubated for 48 hrs by Western blot analysis. The test is classed as cell-based.
Test [4] shares this target. Briefly: Protac activity at CRBN/PLK4 in human MCF7 cells at 10 uM incubated for 48 hrs by Western blot analysis. The test is classed as cell-based.
In the next test the test system is MCF7. Nature of the test: Antiproliferative activity against human MCF7 cells incubated for 5 days by CCK-8 assay. The settings on record: MCF7, 120 h. A general note: Formazan colour is commonly taken as a measure of viable cells.

As to `Cc1cc(Nc2nc(NCc3ccc(F)cc3F)nc3c2cnn3C2CCN(C(=O)CC3CCN(c4ccc5c(c4)C(=O)N(C4CCC(=O)NC4=O)C5=O)C3)CC2)n[nH]1` (stereo unspecified), in test [1], the 50% inhibitory concentration (IC50) came to 8.1 nM. The Activity was found to be 39.2% in test [2] and 48.9% in test [3].
Turning to `Cc1cc(Nc2nc(NCc3ccc(F)cc3F)nc3c2cnn3C2CCN(C(=O)COc3ccc4c(c3)C(=O)N(C3CCC(=O)NC3=O)C4=O)CC2)n[nH]1` (stereo unspecified), the IC50 in test [1] worked out at 5.6 nM. The values for the Activity in test [2], in test [3] and in test [4] were 25.3%, 28.5% and 43.9%, respectively.
`Cc1cc(Nc2nc(NCc3ccc(F)cc3F)nc3c2cnn3C2CCN(C(=O)CCOCCOc3ccc4c(c3)C(=O)N(C3CCC(=O)NC3=O)C4=O)CC2)n[nH]1` (stereo unspecified): the IC50 in test [1] came out at 3.6 nM. Besides, the Activity in test [2] worked out at 5.68%; in test [3], 13.4%; in test [4] it was 19.7%.
Taken in the same sequence, the figures for `Cc1cc(Nc2nc(NCc3ccc(F)cc3F)nc3c2cnn3C2CCN(CC3CCN(c4ccc5c(c4)C(=O)N(C4CCC(=O)NC4=O)C5=O)CC3)CC2)n[nH]1` (stereo unspecified) were 3.1 nM, 2.16%, 8.64% and 19.2%.
The matching figures for `Cc1cc(Nc2nc(NCc3ccc(F)cc3F)nc3c2cnn3C2CCN(C(=O)CCCCCCCCCCCOc3ccc4c(c3)C(=O)N(C3CCC(=O)NC3=O)C4=O)CC2)n[nH]1` (stereo unspecified): 531 nM, 4.29%, 13.2% and 21.7%.
The matching figures for `Cc1cc(Nc2nc(NCc3ccc(F)cc3F)nc3c2cnn3C2CCN(C(=O)CCCCCCCCCCCCCCCOc3ccc4c(c3)C(=O)N(C3CCC(=O)NC3=O)C4=O)CC2)n[nH]1` (stereo unspecified): 121 nM, 24.1%, 37.8% and 43.5%.
`Cc1cc(Nc2nc(NCc3ccc(F)cc3F)nc3c2cnn3C2CCNCC2)n[nH]1` came in with an IC50 in the test on MCF7 of 650 nM.
Turning to `Cc1cc(Nc2nc(NCc3ccc(F)cc3F)nc3c2cnn3C2CCN(CC3CCN(c4ccc5c(c4)C(=O)N(C4CCC(=O)NC4=O)C5=O)C3)CC2)n[nH]1` (stereo unspecified), the IC50 in test [1] worked out at 13.6 nM. Also, the values for the Activity in test [2], in test [3] and in test [4] were 3.54%, 8.91% and 26.1%, respectively.
The matching figures for `Cc1cc(Nc2nc(NCc3ccc(F)cc3F)nc3c2cnn3C2CCN(Cc3ccc(C4CCN(c5ccc6c(c5)C(=O)N(C5CCC(=O)NC5=O)C6=O)CC4)cc3)CC2)n[nH]1` (stereo unspecified): 106 nM, 1.05%, 3.11% and 7.32%.
In the case of `Cc1cc(Nc2nc(NCc3ccc(F)cc3F)nc3c2cnn3C2CCN(C(=O)CCCCOc3ccc4c(c3)C(=O)N(C3CCC(=O)NC3=O)C4=O)CC2)n[nH]1` (stereo unspecified), the figures for the IC50 (in test [1]; with MCF7) were 2.6 nM and 260 nM, respectively. For the same compound, the Activity in test [2] was determined as 44.1%; in test [3], 56.8%; in test [4], 63.6%.
Regarding `Cc1cc(Nc2nc(NCc3ccc(F)cc3F)nc3c2cnn3C2CCN(C(=O)CCCCCCCCCOc3ccc4c(c3)C(=O)N(C3CCC(=O)NC3=O)C4=O)CC2)n[nH]1` (stereo unspecified), the half-maximal inhibitory concentration (IC50) in test [1] was determined as 1080 nM. The Activity in test [2] is 2.81%; in test [3], 103%; in test [4] it was 23.6%.
On to `Cc1cc(Nc2nc(NCc3ccc(F)cc3F)nc3c2cnn3C2CCN(CC3CN(c4ccc5c(c4)C(=O)N(C4CCC(=O)NC4=O)C5=O)C3)CC2)n[nH]1` (stereo unspecified), for which the half-inhibitory concentration (IC50) in test [1] was 10.1 nM. Further, the Activity in test [2] amounted to 2.33%; in test [3] it was 31.1%; in test [4] it was 42.2%.
In the case of `Cc1cc(Nc2nc(NCc3ccc(F)cc3F)nc3c2cnn3C2CCN(C(=O)COCCOc3ccc4c(c3)C(=O)N(C3CCC(=O)NC3=O)C4=O)CC2)n[nH]1` (stereo unspecified), the IC50 in test [1] was 1.9 nM. For the same compound, the Activity is 2.13% in test [2], 5.34% in test [3] and 28.3% in test [4].
On to `Cc1cc(Nc2nc(NCc3ccc(F)cc3F)nc3c2cnn3C2CCN(C(=O)Cc3ccc(N4CCN(c5ccc6c(c5)C(=O)N(C5CCC(=O)NC5=O)C6=O)CC4)cc3)CC2)n[nH]1` (stereo unspecified), for which the IC50 in test [1] was determined as 216 nM; in the test with MCF7, 6980 nM. The Activity was determined as 40.1% in test [2] and 57.6% in test [3].
For the compound `Cc1cc(Nc2nc(NCc3ccc(F)cc3F)nc3c2cnn3C2CCN(C(=O)CCCCCCCOc3ccc4c(c3)C(=O)N(C3CCC(=O)NC3=O)C4=O)CC2)n[nH]1` (stereo unspecified), the IC50 in test [1] was determined as 42.2 nM. Besides, the Activity in test [2] is 30.2%; in test [3] it was 38.9%; in test [4], 50.3%.
With `Cc1cc(Nc2nc(NCc3ccc(F)cc3F)nc3c2cnn3C2CCN(C(=O)c3ccc(C4CCN(c5ccc6c(c5)C(=O)N(C5CCC(=O)NC5=O)C6=O)CC4)cc3)CC2)n[nH]1` (stereo unspecified), the IC50 in test [1] amounted to 82.7 nM; in the test with MCF7 it was 2500 nM. Also, the Activity turned out to be 50.5% in test [2], 61.4% in test [3] and 69.9% in test [4].
Taken in the same sequence, the figures for `Cc1cc(Nc2nc(NCc3ccc(F)cc3F)nc3c2cnn3C2CCN(C(=O)C3CCN(c4ccc5c(c4)C(=O)N(C4CCC(=O)NC4=O)C5=O)C3)CC2)n[nH]1` (stereo unspecified) were 5.5 nM, 260 nM, 36.7%, 56.1% and 66.8%.
For the compound `Cc1cc(Nc2nc(NCc3ccc(F)cc3F)nc3c2cnn3C2CCN(C(=O)CCCCCCCCCCCCCOc3ccc4c(c3)C(=O)N(C3CCC(=O)NC3=O)C4=O)CC2)n[nH]1` (stereo unspecified), the IC50 in test [1] was found to be 154 nM. Further, the Activity in test [2] was determined as 11.6%; in test [3], 22.8%; in test [4] it was 35.9%.
For `Cc1cc(Nc2nc(NCc3ccc(F)cc3F)nc3c2cnn3C2CCN(C(=O)CCCCCCCCCCCCCCCCCOc3ccc4c(c3)C(=O)N(C3CCC(=O)NC3=O)C4=O)CC2)n[nH]1` (stereo unspecified), the IC50 in test [1] was 19.6 nM. Further, the Activity came to 20.2% in test [2], 46.8% in test [3] and 58.1% in test [4].
The matching figures for `Cc1cc(Nc2nc(NCc3ccc(F)cc3F)nc3c2cnn3C2CCN(C(=O)CCOCCOCCCOc3ccc4c(c3)C(=O)N(C3CCC(=O)NC3=O)C4=O)CC2)n[nH]1` (stereo unspecified): 37.9 nM, 29.1%, 46.4% and 52.2%.
The matching figures for `Cc1cc(Nc2nc(NCc3ccc(F)cc3F)nc3c2cnn3C2CCN(C(=O)CC3CC4(C3)CN(c3ccc5c(c3)C(=O)N(C3CCC(=O)NC3=O)C5=O)C4)CC2)n[nH]1` (stereo unspecified): 61.1 nM, 1.84%, 5.49% and 24.3%.
`Cc1cc(Nc2nc(NCc3ccc(F)cc3F)nc3c2cnn3C2CCN(C(=O)C3CC4(C3)CN(c3ccc5c(c3)C(=O)N(C3CCC(=O)NC3=O)C5=O)C4)CC2)n[nH]1` (stereo unspecified): the IC50 in test [1] is 75.2 nM. For the same compound, the Activity was 0.28% in test [2], 2.39% in test [3] and 4.01% in test [4].
In the case of `Cc1cc(Nc2nc(NCc3ccc(F)cc3F)nc3c2cnn3C2CCN(C(=O)CC3CCN(c4ccc5c(c4)C(=O)N(C4CCC(=O)NC4=O)C5=O)CC3)CC2)n[nH]1` (stereo unspecified), the IC50 in test [1] was 19.1 nM; with MCF7, 2460 nM. In addition, the figures for the Activity in test [2] and in test [3] were 46.2% and 51%, respectively.
`Cc1cc(Nc2nc(NCc3ccc(F)cc3F)nc3c2cnn3C2CCN(CC3CC4(C3)CN(c3ccc5c(c3)C(=O)N(C3CCC(=O)NC3=O)C5=O)C4)CC2)n[nH]1` (stereo unspecified): the IC50 in test [1] was 42.3 nM. In addition, the Activity in test [2] was determined as 4.12%; in test [3], 6.07%.
Regarding `Cc1cc(Nc2nc(NCc3ccc(F)cc3F)nc3c2cnn3C2CCN(C(=O)COCCOCCOc3ccc4c(c3)C(=O)N(C3CCC(=O)NC3=O)C4=O)CC2)n[nH]1` (stereo unspecified), the IC50 in test [1] was determined as 9.4 nM. The Activity in test [2] was found to be 24.6%; in test [3], 30.3%; in test [4] it was 38.5%.
Regarding `Cc1cc(Nc2nc(NCc3ccc(F)cc3F)nc3c2cnn3C2CCN(C(=O)CC3CN(c4ccc5c(c4)C(=O)N(C4CCC(=O)NC4=O)C5=O)C3)CC2)n[nH]1` (stereo unspecified), the figures for the IC50 (in test [1]; in the test with MCF7) were 12.9 nM and 510 nM, respectively. Besides, the Activity was 47.7% in test [2] and 70.4% in test [3].
`Cc1cc(Nc2nc(NCc3ccc(F)cc3F)nc3c2cnn3C2CCN(C(=O)CCCCCOc3ccc4c(c3)C(=O)N(C3CCC(=O)NC3=O)C4=O)CC2)n[nH]1` (stereo unspecified): the IC50 in test [1] was 5.5 nM. The Activity was determined as 31.3% in test [2], 46.7% in test [3] and 57.7% in test [4].

Usually IC50 stands for the midpoint of a concentration-inhibition curve.
